Measured values: paper PMC6399351, “Cationic Intrinsically Disordered Antimicrobial Peptides (CIDAMPs) Represent a New Paradigm of Innate Defense with a Potential for Novel Anti-Infectives” (Scientific Reports, 2019)
Several values for one entry are separate records, joined by “and”; a condition that tells them apart may be missing. Equal entries are not always repeated. Where two headings read alike, the source gives them in different places. Square brackets hold non-standard residues; d marks the D form. Ends that are not written are not given here. Peptide text beside a SMILES is read from it. * marks the point of attachment. Palmitoyl = CCCCCCCCCCCCCCCC(=O)*; Myristoyl = CCCCCCCCCCCCCC(=O)*; dOrn = NCCC[C@@H](N)C(=O)O

Columns and labels:
P. aeruginosa ATCC 10145 = conditions: CFU assay, 10 mM NaP, pH 5.5, 0.25% glucose
S. aureus ATCC 6538 = conditions: for LD90 / LD100: CFU assay, 10 mM NaP

| Compound | LD90 (P. aeruginosa ATCC 10145) [µg/mL] | LD100 (P. aeruginosa ATCC 10145) [µg/mL] | LD90 (S. aureus ATCC 6538; pH 5.5, 0.25% glucose) [µg/mL] | LD100 (S. aureus ATCC 6538; pH 5.5, 0.25% glucose) | further results |
| --- | --- | --- | --- | --- | --- |
| CCCCCCCCCCCCCCCC(=O)NCC(=O)N[C@@H](CCCCN)C(=O)N[C@@H](CCCCN)C(=O)NCC(=O)NCC(=O)N[C@@H](CCCCN)C(=O)NCC(=O)NCC(=O)N[C@@H](CCCCN)C(=O)NCC(=O)N[C@@H](CCCCN)C(=O)NCC(=O)N[C@@H](CCCCN)C(=O)O [Pal-K-GR13] (Palmitoyl-GKKGGKGGKGKGK-OH; C-terminus assumed) | < 0.019 | 0.15 | 0.59 | >300 µg/mL |  |
| GRRGSGGGRSSSRGGRGSGSGR [HR 1-18,4H-4R/L-G] |  | 0.15 | > 300 | > 300 µg/mL |  |
| CCCCCCCCCCCCCCCC(=O)NCC(=O)N[C@H](CCCCN)C(=O)NCC(=O)N[C@H](CCCCN)C(=O)O [Pal-(D)-GK4] (Palmitoyl-G[dK]G[dK]-OH; C-terminus assumed) | 1.18 | 4.7 | 4.7 | 9.375 µg/mL |  |
| CCCCCCCCCCCCCCCC(=O)NCC(=O)N[C@@H](Cc1c[nH]cn1)C(=O)N[C@@H](Cc1c[nH]cn1)C(=O)NCC(=O)NCC(=O)N[C@@H](Cc1c[nH]cn1)C(=O)NCC(=O)NCC(=O)N[C@@H](Cc1c[nH]cn1)C(=O)NCC(=O)N[C@@H](Cc1c[nH]cn1)C(=O)NCC(=O)N[C@@H](Cc1c[nH]cn1)C(=O)O [Pal-GH13] (Palmitoyl-GHHGGHGGHGHGH-OH; C-terminus assumed) | 0.075 | 0.3 | 0.3 | 300 µg/mL | LD90 (S. aureus ATCC 6538; pH 7.0, 0.25% glucose): 0.3 µg/mL; LD100 (S. aureus ATCC 6538; pH 7.0, 0.25% glucose): >300 µg/mL; S. aureus ATCC 6538-cidal activity (S. aureus ATCC 6538; pH 7.5, at concentrations >8 µM and <0.1 µM (antibiotic paradox)): complete loss of bactericidal activity |
| CCCCCCCCCCCCCCCC(=O)NCC(=O)N[C@H](CCCN)C(=O)NCC(=O)N[C@H](CCCN)C(=O)O [Pal-(D)-GO4] (Palmitoyl-G[dOrn]G[dOrn]-OH; C-terminus assumed) | 1.18 | 9.38 | 9.38 | 18.75 µg/mL |  |
| SRRSSSLSRSSSRSSRSSSSSR [HR 1-18,4H-4R/9G-9S] | 0.15 | 1.18 | 150 | > 300 µg/mL | LD90 (S. aureus ATCC 6538; pH 7.2, 0.25% glucose): 75 µg/mL; LD100 (S. aureus ATCC 6538; pH 7.2, 0.25% glucose): > 300 µg/mL |
| CCCCCCCCCCCCCCCC(=O)SC[C@H](N)C(=O)NCC(=O)N[C@@H](CCC(N)=O)C(=O)N[C@@H](Cc1c[nH]cn1)C(=O)NCC(=O)N[C@@H](C)C(=O)N[C@H](C(=O)N[C@@H](CO)C(=O)N[C@@H](CO)C(=O)NCC(=O)N[C@@H](CCC(N)=O)C(=O)N[C@@H](CO)C(=O)N[C@@H](CO)C(=O)N[C@@H](CO)C(=O)N[C@@H](Cc1c[nH]cn1)C(=O)NCC(=O)N[C@@H](CCC(N)=O)C(=O)N[C@@H](Cc1c[nH]cn1)C(=O)NCC(=O)N[C@@H](CO)C(=O)NCC(=O)N[C@@H](CO)C(=O)N[C@@H](CO)C(=O)N[C@@H](CCC(N)=O)C(=O)N[C@@H](CO)C(=O)N[C@@H](CO)C(=O)NCC(=O)N[C@@H](Cc1ccc(O)cc1)C(=O)NCC(=O)N[C@@H](CCCNC(=N)N)C(=O)O)[C@@H](C)O [S-Pal-HRNR1089–1117] (H-C(Palmitoyl)GQHGATSSGQSSSHGQHGSGSSQSSGYGR-OH; N-terminus and C-terminus assumed) |  |  |  | > 150 µg/mL |  |
| CCCCCCCCCCCCCC(=O)NCC(=O)N[C@@H](CCCNC(=N)N)C(=O)N[C@@H](CCCNC(=N)N)C(=O)NCC(=O)N[C@@H](CO)C(=O)NCC(=O)N[C@@H](CC(C)C)C(=O)NCC(=O)N[C@@H](CCCNC(=N)N)C(=O)N[C@@H](CO)C(=O)N[C@@H](CO)C(=O)N[C@@H](CO)C(=O)N[C@@H](CCCNC(=N)N)C(=O)NCC(=O)N[C@@H](CCC(N)=O)C(=O)N[C@@H](CCCNC(=N)N)C(=O)NCC(=O)N[C@@H](CO)C(=O)NCC(=O)N[C@@H](CO)C(=O)NCC(=O)N[C@@H](CCCNC(=N)N)C(=O)O [Myr-HR 1-18-HR] (Myristoyl-GRRGSGLGRSSSRGQRGSGSGR-OH; C-terminus assumed) |  |  |  |  | LD90 (S. aureus ATCC 6538; pH 7.3, 1% TSB): 18.75 µg/mL; LD100 (S. aureus ATCC 6538; pH 7.3, 1% TSB): 75 µg/mL |
| Pal-SHHRHFRSHQCRRQRS NSCDR [Pal-LCE-3C55-75] |  |  | 0.15 | 0.59 µg/mL |  |
| CCCCCCCCCCCCCCCC(=O)SC[C@H](NC(=O)[C@H](CO)NC(=O)[C@H](CO)NC(=O)[C@H](CO)NC(=O)[C@H](CCC(N)=O)NC(=O)CNC(=O)[C@H](CO)NC(=O)[C@H](C)NC(=O)[C@H](CO)NC(=O)CNC(=O)[C@H](Cc1c[nH]cn1)NC(=O)[C@H](CCC(N)=O)NC(=O)CNC(=O)[C@H](Cc1c[nH]cn1)NC(=O)[C@@H](NC(=O)[C@H](CO)NC(=O)[C@H](CO)NC(=O)[C@H](Cc1c[nH]cn1)NC(=O)CNC(=O)[C@H](CO)NC(=O)[C@H](CO)NC(=O)[C@H](CO)NC(=O)CNC(=O)[C@H](Cc1c[nH]cn1)NC(=O)[C@H](CCC(N)=O)NC(=O)CN)[C@@H](C)O)C(N)=O [S-Pal-HRNR2004–2029] (H-GQHGSSSGHSSTHGQHGSASGQSSSC(Palmitoyl)-NH2; N-terminus assumed) |  |  | 0.59 | > 150 µg/mL and 75 µg/mL |  |
| GRRGGGGGRGGGRGGRGGGGGR [HR 1-18,G+R] |  |  | > 300 | > 300 µg/mL |  |
| CCCCCCCCCCCCCCCC(=O)SC[C@H](N)C(=O)NCC(=O)N[C@@H](CCC(N)=O)C(=O)N[C@@H](Cc1c[nH]cn1)C(=O)NCC(=O)N[C@@H](C)C(=O)N[C@H](C(=O)N[C@@H](CO)C(=O)NCC(=O)N[C@@H](CCC(N)=O)C(=O)N[C@@H](CO)C(=O)N[C@@H](CO)C(=O)N[C@@H](CO)C(=O)N[C@@H](Cc1c[nH]cn1)C(=O)NCC(=O)N[C@@H](CCC(N)=O)C(=O)N[C@@H](Cc1c[nH]cn1)C(=O)NCC(=O)N[C@@H](CO)C(=O)NCC(=O)N[C@@H](CO)C(=O)N[C@@H](CO)C(=O)N[C@@H](CCC(N)=O)C(=O)N[C@@H](CO)C(=O)N[C@@H](CO)C(=O)N[C@@H](CCCNC(=N)N)C(=O)O)[C@@H](C)O [S-Pal-HRNR623–648] (H-C(Palmitoyl)GQHGATSGQSSSHGQHGSGSSQSSR-OH; N-terminus and C-terminus assumed) |  |  | 2.35 | > 150 µg/mL |  |
| CCCCCCCCCCCCCCCC(=O)SC[C@H](NC(=O)CNC(=O)[C@H](CO)NC(=O)[C@H](CO)NC(=O)[C@H](CCC(N)=O)NC(=O)[C@H](Cc1c[nH]c2ccccc12)NC(=O)[C@H](CO)NC(=O)[C@H](CO)NC(=O)[C@H](CO)NC(=O)[C@H](CCC(=O)O)NC(=O)[C@H](Cc1c[nH]cn1)NC(=O)[C@H](Cc1c[nH]cn1)NC(=O)CNC(=O)[C@H](Cc1ccccc1)NC(=O)CNC(=O)[C@H](CO)NC(=O)[C@H](CO)NC(=O)[C@H](CCC(N)=O)NC(=O)CNC(=O)[C@H](CO)NC(=O)CNC(=O)[C@H](CO)NC(=O)CNC(=O)[C@H](Cc1c[nH]cn1)NC(=O)[C@H](CCCNC(=N)N)NC(=O)CN)C(N)=O [S-Pal-HRNR1389–1414] (H-GRHGSGSGQSSGFGHHESSSWQSSGC(Palmitoyl)-NH2; N-terminus assumed) |  |  | 1.18 | 18.8 µg/mL |  |
| SHHRPRLFHRRRH [LCE-2B74-86] |  |  | 1.18 | > 150 µg/mL |  |
